Earlier results, collected in US9265822B2 (priority 2009, dated 2016).

System: 2009 H1N1 swine flu virus

SMILES | effectiveness against the 2009 "swine" flu
NC12CC3CC(CC(C3)C1)C2 [amantadine] | not proven effect
CCOC(=O)C1=C[C@@H](OC(CC)CC)[C@H](NC(C)=O)[C@@H](N)C1 [oseltamivir] | effective
CC(N)C12CC3CC(CC(C3)C1)C2 (stereo not shown) [rimantadine] | not proven effect
CC(=O)N[C@H]1[C@H]([C@H](O)[C@H](O)CO)OC(C(=O)O)=C[C@@H]1N=C(N)N [zanamivir] | effective
